Reference: US9708308B2, “Factor IXa inhibitors” (Merck Sharp & Dohme Corp., priority 2012, dated 2017)

Biological target: Factor IXa (Homo sapiens, UniProt P00740)
Assay: Determination of inhibitory activity against Factor IXa (cleavage of fluorescent peptide substrate)
Type: biochemical
Conditions: cleavage of fluorescent peptide CH3SO2-D-CHG-Gly-Arg-AFC, release of AFC; read-out: FIXa IC50
From the text: • (R)—N-(3-aminobenzo[d]isoxazol-6-yl)-2-hydroxy-2-((R)-4-(1-(6-methoxypyridazin-4-yl)-1H-pyrazol-3-yl)-6,6-dimethyl-3-oxomorpholin-2-yl)acetamide. Determination of Inhibitory Activity Against Factor IXa
Formation of a clot to stem bleeding at a site of blood vessel injury involves the coordinated activity of a group of plasma proteins that initiate and propagate fibrin formation and subsequently protect fibrin from premature degradation. Factor IX is a key component of the plasma system that forms a fibrin clot at a site of vascular injury. The activity of Factor IXa is measured by monitoring the cleavage of the fluorescent peptide, CH3SO2-D-CHG-Gly-Arg-AFC.AcOH (“CHG” is cyclohexyl-glycine and “AFC” is trifluoro aminomethyl coumarin). Factor IXa cleaves the amide bond between Arg and AFC, thereby releasing the AFC fluorophore. The free AFC can be detected with a fluorescence detector at an excitation wavelength of 405 nm and emission wavelength of 510 nm.

Sequence of Factor IXa (P00740 227-461 limits assumed): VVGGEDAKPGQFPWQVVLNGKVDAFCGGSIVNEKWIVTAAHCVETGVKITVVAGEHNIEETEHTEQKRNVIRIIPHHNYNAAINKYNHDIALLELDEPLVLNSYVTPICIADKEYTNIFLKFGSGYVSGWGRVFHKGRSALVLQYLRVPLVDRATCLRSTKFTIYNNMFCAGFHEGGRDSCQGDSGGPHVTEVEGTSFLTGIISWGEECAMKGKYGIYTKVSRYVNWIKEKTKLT
Sequence of Factor IXa (P00740 47-191 partner limits assumed): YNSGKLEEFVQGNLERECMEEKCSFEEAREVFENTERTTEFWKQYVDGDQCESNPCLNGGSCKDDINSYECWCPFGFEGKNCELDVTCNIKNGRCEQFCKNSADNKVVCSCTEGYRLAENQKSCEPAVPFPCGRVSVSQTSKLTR

Compound | IC50 [µM]
C[C@](O)(C(=O)Nc1ccc2c(N)noc2c1)[C@H]1OCCN(c2ccn(-c3ccnc(C#N)c3)n2)C1=O [Example 21, (R)—N-(3-aminobenzo[d]isoxazol-6-yl)-2-((R)-4-(1-(2-cyanopyridin-4-yl)-1H-pyrazol-3-yl)-3-oxomorpholin-2-yl)-2-hydroxypropanamide] | 0.016
C[C@](O)(C(=O)Nc1ccc2c(N)noc2c1)[C@H]1OCCN(c2ccn(-c3ccnc(C(F)(F)F)c3)n2)C1=O [Example 22, (R)—N-(3-aminobenzo[d]isoxazol-6-yl)-2-hydroxy-2-((R)-3-oxo-4-(1-(2-(trifluoromethyl)pyridin-4-yl)-1H-pyrazol-3-yl)morpholin-2-yl)propanamide] | 0.0369
CCOc1cc(-n2ccc(N3CCO[C@H]([C@@](C)(O)C(=O)Nc4ccc5c(N)noc5c4)C3=O)n2)ccn1 [Example 23, (R)—N-(3-aminobenzo[d]isoxazol-6-yl)-2-((R)-4-(1-(2-ethoxypyridin-4-yl)-1H-pyrazol-3-yl)-3-oxomorpholin-2-yl)-2-hydroxypropanamide] | 0.113
CC(C)Oc1cc(-n2ccc(N3CCO[C@H]([C@@](C)(O)C(=O)Nc4ccc5c(N)noc5c4)C3=O)n2)ccn1 [Example 24, (R)—N-(3-aminobenzo[d]isoxazol-6-yl)-2-hydroxy-2-((R)-4-(1-(2-isopropoxypyridin-4-yl)-1H-pyrazol-3-yl)-3-oxomorpholin-2-yl)propanamide] | 0.387
CN(C)c1cc(-n2ccc(N3CCO[C@H]([C@@](C)(O)C(=O)Nc4ccc5c(N)noc5c4)C3=O)n2)ccn1 [Example 25, (R)—N-(3-aminobenzo[d]isoxazol-6-yl)-2-((R)-4-(1-(2-(dimethylamino)pyridin-4-yl)-1H-pyrazol-3-yl)-3-oxomorpholin-2-yl)-2-hydroxypropanamide] | 0.0954
COc1cc(-n2ccc(N3CCO[C@H]([C@@](C)(O)C(=O)Nc4ccc5c(N)noc5c4)C3=O)n2)c(Br)cn1 [Example 26, (R)—N-(3-aminobenzo[d]isoxazol-6-yl)-2-((R)-4-(1-(5-bromo-2-methoxypyridin-4-yl)-1H-pyrazol-3-yl)-3-oxomorpholin-2-yl)-2-hydroxypropanamide] | 0.346
COc1cc(-n2ccc(N3CCO[C@H]([C@@](C)(O)C(=O)Nc4ccc5c(N)noc5c4)C3=O)n2)c(F)cn1 [Example 27, (R)—N-(3-aminobenzo[d]isoxazol-6-yl)-2-((R)-4-(1-(5-fluoro-2-methoxypyridin-4-yl)-1H-pyrazol-3-yl)-3-oxomorpholin-2-yl)-2-hydroxypropanamide] | 0.148
COc1cc(-n2ccc(N3CCO[C@H]([C@@](C)(O)C(=O)Nc4ccc5c(N)noc5c4)C3=O)n2)c(Cl)cn1 [Example 28, (R)—N-(3-aminobenzo[d]isoxazol-6-yl)-2-((R)-4-(1-(5-chloro-2-methoxypyridin-4-yl)-1H-pyrazol-3-yl)-3-oxomorpholin-2-yl)-2-hydroxypropanamide] | 0.445
COc1cc(-n2ccc(N3CCO[C@H]([C@@](C)(O)C(=O)Nc4ccc5c(N)noc5c4)C3=O)n2)c(C(F)(F)F)cn1 [Example 29, (R)—N-(3-aminobenzo[d]isoxazol-6-yl)-2-hydroxy-2-((R)-4-(1-(2-methoxy-5-(trifluoromethyl)pyridin-4-yl)-1H-pyrazol-3-yl)-3-oxomorpholin-2-yl)propanamide] | 0.106
C[C@](O)(C(=O)Nc1ccc2c(N)noc2c1)[C@H]1OCCN(c2nn(-c3ccnc(C(F)(F)F)c3)cc2F)C1=O [Example 30, (R)—N-(3-aminobenzo[d]isoxazol-6-yl)-2-((R)-4-(4-fluoro-1-(2-(trifluoromethyl)pyridin-4-yl)-1H-pyrazol-3-yl)-3-oxomorpholin-2-yl)-2-hydroxypropanamide] | 0.0362
C[C@](O)(C(=O)Nc1ccc2c(N)noc2c1)[C@H]1OCCN(c2nn(-c3ccnc(C#N)c3)cc2F)C1=O [Example 31, (R)—N-(3-aminobenzo[d]isoxazol-6-yl)-2-((R)-4-(1-(2-cyanopyridin-4-yl)-4-fluoro-1H-pyrazol-3-yl)-3-oxomorpholin-2-yl)-2-hydroxypropanamide] | 0.031
COc1cc(-n2cc(Cl)c(N3CCO[C@H]([C@@](C)(O)C(=O)Nc4ccc5c(N)noc5c4)C3=O)n2)ccn1 [Example 33, (R)—N-(3-aminobenzo[d]isoxazol-6-yl)-2-((R)-4-(4-chloro-1-(2-methoxypyridin-4-yl)-1H-pyrazol-3-yl)-3-oxomorpholin-2-yl)-2-hydroxypropanamide] | 0.817
C[C@](O)(C(=O)Nc1ccc2c(N)noc2c1)[C@H]1OCCN(c2nn(-c3ccnc(C#N)c3)cc2Cl)C1=O [Example 34, (R)—N-(3-aminobenzo[d]isoxazol-6-yl)-2-((R)-4-(4-chloro-1-(2-cyanopyridin-4-yl)-1H-pyrazol-3-yl)-3-oxomorpholin-2-yl)-2-hydroxypropanamide] | 0.57
COc1cc(-n2cc(C)c(N3CCO[C@H]([C@@](C)(O)C(=O)Nc4ccc5c(N)noc5c4)C3=O)n2)ccn1 [Example 35, (R)—N-(3-aminobenzo[d]isoxazol-6-yl)-2-hydroxy-2-((R)-4-(1-(2-methoxypyridin-4-yl)-4-methyl-1H-pyrazol-3-yl)-3-oxomorpholin-2-yl)propanamide] | 0.694
COc1cc(-n2nc(N3CCO[C@H]([C@@](C)(O)C(=O)Nc4ccc5c(N)noc5c4)C3=O)cc2C)ccn1 [Example 36, (R)—N-(3-aminobenzo[d]isoxazol-6-yl)-2-hydroxy-2-((R)-4-(1-(2-methoxypyridin-4-yl)-5-methyl-1H-pyrazol-3-yl)-3-oxomorpholin-2-yl)propanamide] | 0.0963
C[C@](O)(C(=O)Nc1ccc2c(N)noc2c1)[C@H]1OCCN(c2ccn(-c3ccnnc3)n2)C1=O [Example 37, (R)—N-(3-aminobenzo[d]isoxazol-6-yl)-2-hydroxy-2-((R)-3-oxo-4-(1-(pyridazin-4-yl)-1H-pyrazol-3-yl)morpholin-2-yl)propanamide] | 0.00436
C[C@](O)(C(=O)Nc1ccc2c(N)noc2c1)[C@H]1OCCN(c2ccn(-c3cnnc(N4CCC4)c3)n2)C1=O [Example 38, (R)—N-(3-aminobenzo[d]isoxazol-6-yl)-2-((R)-4-(1-(6-(azetidin-1-yl)pyridazin-4-yl)-1H-pyrazol-3-yl)-3-oxomorpholin-2-yl)-2-hydroxypropanamide] | 0.0232
COc1cc(-n2ccc(N3CCO[C@H]([C@@](C)(O)C(=O)Nc4ccc5c(N)noc5c4)C3=O)n2)cnn1 [Example 39, (R)—N-(3-aminobenzo[d]isoxazol-6-yl)-2-hydroxy-2-((R)-4-(1-(6-methoxypyridazin-4-yl)-1H-pyrazol-3-yl)-3-oxomorpholin-2-yl)propanamide] | 0.16
[2H]C([2H])([2H])Oc1cc(-n2ccc(N3CCO[C@H]([C@@](C)(O)C(=O)Nc4ccc5c(N)noc5c4)C3=O)n2)cnn1 [Example 40, (2R)—N-(3-amino-1,2-benzoxazol-6-yl)-2-hydroxy-2-[(2R)-3-oxo-4-[1-[6-(trideuteriomethoxy)pyridazin-4-yl]pyrazol-3-yl]morpholin-2-yl]propanamide] | 0.0037
CC(C)Oc1cc(-n2ccc(N3CCO[C@H]([C@@](C)(O)C(=O)Nc4ccc5c(N)noc5c4)C3=O)n2)cnn1 [Example 41, (R)—N-(3-aminobenzo[d]isoxazol-6-yl)-2-hydroxy-2-((R)-4-(1-(6-isopropoxypyridazin-4-yl)-1H-pyrazol-3-yl)-3-oxomorpholin-2-yl)propanamide] | 0.0578
C[C@](O)(C(=O)Nc1ccc2c(N)noc2c1)[C@H]1OCCN(c2ccn(-c3cnnc(OC4CCC4)c3)n2)C1=O [Example 43, (R)—N-(3-aminobenzo[d]isoxazol-6-yl)-2-((R)-4-(1-(6-cyclobutoxypyridazin-4-yl)-1H-pyrazol-3-yl)-3-oxomorpholin-2-yl)-2-hydroxypropanamide] | 0.535
Cn1ncc(-n2ccc(N3CCO[C@H]([C@@](C)(O)C(=O)Nc4ccc5c(N)noc5c4)C3=O)n2)cc1=O [Example 44, (R)—N-(3-aminobenzo[d]isoxazol-6-yl)-2-hydroxy-2-((R)-4-(1-(1-methyl-6-oxo-1,6-dihydropyridazin-4-yl)-1H-pyrazol-3-yl)-3-oxomorpholin-2-yl)propanamide] | 0.812
C[C@](O)(C(=O)Nc1ccc2c(N)noc2c1)[C@H]1OCCN(c2ccn(-c3cnnc(C#N)c3)n2)C1=O [Example 45, (R)—N-(3-aminobenzo[d]isoxazol-6-yl)-2-((R)-4-(1-(6-cyanopyridazin-4-yl)-1H-pyrazol-3-yl)-3-oxomorpholin-2-yl)-2-hydroxypropanamide] | 0.00261
C[C@](O)(C(=O)Nc1ccc2c(N)noc2c1)[C@H]1OCCN(c2ccn(-c3cnnc(C(F)(F)F)c3)n2)C1=O [Example 46, (R)—N-(3-aminobenzo[d]isoxazol-6-yl)-2-hydroxy-2-((R)-3-oxo-4-(1-(6-(trifluoromethyl)pyridazin-4-yl)-1H-pyrazol-3-yl)morpholin-2-yl)propanamide] | 0.00141
C[C@](O)(C(=O)Nc1ccc2c(N)noc2c1)[C@H]1OCCN(c2nn(-c3ccnnc3)cc2F)C1=O [Example 47, (R)—N-(3-aminobenzo[d]isoxazol-6-yl)-2-((R)-4-(4-fluoro-1-(pyridazin-4-yl)-1H-pyrazol-3-yl)-3-oxomorpholin-2-yl)-2-hydroxypropanamide] | 0.00691
C[C@](O)(C(=O)Nc1ccc2c(N)noc2c1)[C@H]1OCCN(c2nn(-c3cnnc(C#N)c3)cc2F)C1=O [Example 48, (R)—N-(3-aminobenzo[d]isoxazol-6-yl)-2-((R)-4-(1-(6-cyanopyridazin-4-yl)-4-fluoro-1H-pyrazol-3-yl)-3-oxomorpholin-2-yl)-2-hydroxypropanamide] | 0.00415
